From patent publication US20250222028A1, “ENGINEERED IMMUNE CELL PLATFORM” (Cancer Research Technology Limited, priority 2022, published 2025)

Test system: GLI1
Assay: GLI1 expression by qRT-PCR in NK-92 cells
Format: cell-based, human
Conditions: 10 μM
Protocol: FIG. 5. L-type Cav channel agonists increase GLI1 expression in the human NK cell line NK-92 and promote specific tumour cell killing. (A) NK-92 cells were stimulated using an anti-NKp46 mAb for 4 hours in the presence of 10 μM FPL 64176, and GLI1 expression was assessed using qRT-PCR. Data is n=4 independent experiments. (B) NK-92 cells were stimulated using an anti-NKp46 mAb for 4 hours in the presence of 100 μM Bay K8644, and GLI1 expression was assessed using qRT-PCR. Data is n=3 independent experiments. (C) An LDH assay was performed to assess specific cell killing of K562 target cells at indicated effector to target ratios in the presence of 10 μM FPL 64176 (right-hand columns) or carrier control (left-hand columns). Error bars indicate SD. Data is from n=3 independent experiments.
To investigate whether L-type Cav channel agonists are also capable of enhancing GLI1 mRNA levels in the human NK cell line NK-92 (a non-Hodgkin's lymphoma cell line, expressing only Cav1.3), NK-92 cells were stimulated using an anti-NKp46 mAb (5 μg/mL) for 4 hours in the presence of either 10 μM FPL 64176 or 100 μM Bay K8644. For reference, Bay K8644 is a structural analogue of nifedipine, and acts as an L-type Cav channel agonist. GLI1 expression was assessed using qRT-PCR. […] These observations confirm that the GLI1-inducing effect of Cav agonists is not merely restricted to the compound FPL 64176. In particular, in NK cells.

COC(=O)c1c(C)[nH]c(C)c1C(=O)c1ccccc1Cc1ccccc1 [FPL 64176] was tested, and the GLI1 expression (stimulated with anti-NKp46 mAb 4 hours, vs carrier control) was “increased” and the GLI1 expression (unstimulated cells) was “No significant increase”.
